Values of other authors in patent US8940311B2, “In situ controlled release drug delivery system” (priority 2004, dated 2015).

What was measured:
plasma cholinesterase = plasma cholinesterase (Homo sapiens, UniProt P06276); details: hydrolysis by plasma cholinesterase
Chain of plasma cholinesterase (P06276 29-602): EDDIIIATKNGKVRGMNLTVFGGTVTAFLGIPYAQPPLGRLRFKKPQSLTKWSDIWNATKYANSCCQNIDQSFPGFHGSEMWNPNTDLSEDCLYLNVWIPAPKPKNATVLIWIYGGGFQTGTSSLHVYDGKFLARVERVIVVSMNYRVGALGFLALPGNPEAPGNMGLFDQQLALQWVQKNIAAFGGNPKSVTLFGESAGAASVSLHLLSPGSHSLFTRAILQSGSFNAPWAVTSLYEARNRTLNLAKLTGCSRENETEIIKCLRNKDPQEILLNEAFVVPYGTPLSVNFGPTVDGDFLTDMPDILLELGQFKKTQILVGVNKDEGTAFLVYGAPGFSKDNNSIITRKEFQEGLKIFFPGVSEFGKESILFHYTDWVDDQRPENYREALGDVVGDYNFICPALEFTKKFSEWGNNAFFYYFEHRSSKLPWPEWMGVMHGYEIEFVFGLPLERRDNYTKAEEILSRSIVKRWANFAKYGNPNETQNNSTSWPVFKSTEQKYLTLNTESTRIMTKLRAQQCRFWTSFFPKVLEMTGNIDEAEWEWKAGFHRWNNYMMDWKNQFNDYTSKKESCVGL

| order of rate of amide hydrolysis (liver microsomal enzymes) | SMILES | half-life (plasma cholinesterase) |
| --- | --- | --- |
| slowest | CCCCN1CCCCC1C(=O)Nc1c(C)cccc1C (stereo not shown) [bupivacaine] |  |
|  | CCN(CC)CCOC(=O)c1ccc(N)cc1Cl [chloroprocaine] | less than one |
| fastest | CCCN(CC)C(CC)C(=O)Nc1c(C)cccc1C (stereo not shown) [etidocaine] |  |
|  | CCN(CC)CCOC(=O)c1ccc(N)cc1 [procaine] | less than one |
